Measured values: US20060194259A1, “Method for isolating an allosteric effector of a receptor” (priority 2002, published 2006)
Each block holds one compound with its values, some of them ahead of it.

Assays:
receptor EGFP-NK2R [1] = target: T1, receptor EGFP-NK2R (UniProt P16610); assay: Reversion of the binding of NKA-Bo to EGFP-NK2R by fluorescence energy transfer; parameters: % al (max): maximum value observed for the increase in amplitude of the rapid dissociation rate; ns = n; other: 20 nM of NK; % al (at 10 μM); other: compou; fused on or other part: EGFP fused to the receptor as FRET donor; settings: 20 nM NKA-Bo; increasing concentration of compound; 100% = NKA 10 μM
T1 sequence (P16610 1-390): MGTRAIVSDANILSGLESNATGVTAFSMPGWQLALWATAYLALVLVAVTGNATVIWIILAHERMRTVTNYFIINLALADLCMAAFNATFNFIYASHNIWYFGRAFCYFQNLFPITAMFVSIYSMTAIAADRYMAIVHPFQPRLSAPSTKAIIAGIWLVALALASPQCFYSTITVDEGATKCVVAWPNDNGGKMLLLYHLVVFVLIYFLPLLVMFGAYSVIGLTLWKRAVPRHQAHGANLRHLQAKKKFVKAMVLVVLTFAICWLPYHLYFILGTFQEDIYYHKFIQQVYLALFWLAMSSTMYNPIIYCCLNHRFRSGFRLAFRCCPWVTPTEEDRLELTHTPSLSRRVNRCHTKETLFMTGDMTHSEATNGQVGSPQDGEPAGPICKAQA
Description: (§1) The amplitude of each relaxation is then given by the adjustment of the experimental traces.

[2] = system: cells not expressing the EGFP-NK2R receptor; assay: Calcium response on cells not expressing the receptor; format: cell-based; parameters: key: ns: not significant; ?: uniterpretable; settings: Table 1
receptor EGFP-NK2R [3] = target: T1, receptor EGFP-NK2R; assay: Association kinetics of NKA-Bo with EGFP-NK2R by fluorescence energy transfer (rapid mixing); format: binding; parameters: % al (max): maximum value observed for the increase in amplitude of the rapid dissociation rate; ns = n; other: 20 nM of NK; % al (at 10 μM); other: compou; fused on or other part: EGFP fused to the receptor as FRET donor
Description: Association (FIG. 4A): HEK 293 cells expressing the receptor EGFP-NK2R (NK2R marked with GFP) are put into suspension at a concentration of 2,000,000 cells/ml in Hepes physiological buffer (in mM: 137.5 NaCl; 1.25 MgCl2; 1.25 CaCl2; 6 KCl; 5.6 glucose; 10 Hepes; 0.4 NaH2PO4; 1% BSA (w/v); pH 7.4) and arranged in one of the reservoirs of the rapid mixing device. […] The observation chamber is arranged in a SPEX fluorolog 3 spectrofluorimeter. The temperature of the reservoir of the syringes as well as of the mixing and observation chamber is fixed at 21° C. The excitation wavelength of the observation chamber is fixed at 470 nm, and the fluorescence emission wavelength is fixed at 510 nm. The sampling frequency of the experimental points is fixed at 50 Hz (1 point every 20 msec). The content of the reservoirs is driven towards the mixing and observation chamber using a pneumatic device allowing a flow rate of 4 ml/sec and the evolution of the mixture is recorded continuously from the moment of stopping of the thrust of the pistons of the reservoirs. The reaction of association of NKA-Bo with the receptor EGFP-NK2R is detected in the form of a reduction in the intensity of fluorescence of the GFP carried by the receptor NK2R. The experimental trace is adjusted by a multiexponential curve of type y=λ1 exp (−k1app×T)+λ2 exp (−k2app×T)+“straight”, where λ1 and λ2 are the amplitudes of the rapid and slow relaxations, k1app and k2app are the apparent rate constants of rapid and slow association, T is time and “straight” is a mathematical correction of the signal drift. The values of λ1, λ2, k1app, k2app for a final concentration of NKA-BO of 100 nM are respectively 67%; 32%; 0.6 sec^−1 and 0.03 sec^−1. The correlation coefficient of the adjustment of the experimental curve is R=0.989.
The rapid binding of NKA-Bo, recorded at a concentration of 20 nM using the rapid mixing equipment, is broken down into a sum of two exponentials the rates (kapp) of which differ by a factor of 10. The rapid binding of NKA-Bo (kapp=0.095 sec^−1) represents 44% of the total binding signal, in the absence of A11 (50 μM), whereas it represents 52% of the total signal in the presence of A11. The slow binding is carried out in both cases with an apparent rate (kapp) equal to 0.0095 sec^−1, and an amplitude equal to […] in the absence of A11, and 48% in the presence of A11.

receptor EGFP-NK2R [4] = target: T1, receptor EGFP-NK2R; assay: Dissociation kinetics of NKA-Bo bound to EGFP-NK2R by fluorescence energy transfer; format: binding; parameters: % al (max): maximum value observed for the increase in amplitude of the rapid dissociation rate; ns = n; other: 20 nM of NK; % al (at 10 μM); other: compou; fused on or other part: EGFP fused to the receptor as FRET donor
Experimental: Dissociation (FIG. 4B): HEK 293 cells expressing the receptor EGFP-NK2R are put into suspension at a concentration of 1,000,000 cells/ml in Hepes physiological buffer (in mM: 137.5 NaCl; 1.25 MgCl2; 1.25 CaCl2; 6 KCl; 5.6 glucose; 10 Hepes; 0.4 NaH2PO4; 1% BSA (w/v); pH 7.4) and arranged in a 1 ml cuvette equipped with a magnetic stirrer on the cuvette holder of a SPEX fluorolog 3 spectrofluorimeter.
as §1

receptor EGFP-NK2R [5] = target: T1, receptor EGFP-NK2R; assay: Dissociation of NKA4-10 TR7 from EGFP-NK2R by fluorescence energy transfer; format: binding; parameters: % al (max): maximum value observed for the increase in amplitude of the rapid dissociation rate; ns = n; other: 20 nM of NK; % al (at 10 μM); other: compou; fused on or other part: EGFP fused to the receptor as FRET donor; settings: 10° C.; without 805
Experimental: (§2) The x-axis represents time in seconds and the y-axis represents fluorescence.
(§3) In the presence of 10 μM of 805, an acceleration of the dissociation is observed characterized by a modification of the amplitudes of the rapid (88%) and slow (12%) dissociation stages.

receptor EGFP-NK2R [6] = target: T2, receptor EGFP-NK2R (Homo sapiens, UniProt P21452); assay: Calcium response caused by NKA 4-10 TR7 in HEK 293 cells expressing EGFP-NK2R (indo-1); format: cell-based; settings: read-out: 50%-effective dose of NKA 4-10 TR7 for the calcium response; without 805
T2 sequence (P21452 1-398): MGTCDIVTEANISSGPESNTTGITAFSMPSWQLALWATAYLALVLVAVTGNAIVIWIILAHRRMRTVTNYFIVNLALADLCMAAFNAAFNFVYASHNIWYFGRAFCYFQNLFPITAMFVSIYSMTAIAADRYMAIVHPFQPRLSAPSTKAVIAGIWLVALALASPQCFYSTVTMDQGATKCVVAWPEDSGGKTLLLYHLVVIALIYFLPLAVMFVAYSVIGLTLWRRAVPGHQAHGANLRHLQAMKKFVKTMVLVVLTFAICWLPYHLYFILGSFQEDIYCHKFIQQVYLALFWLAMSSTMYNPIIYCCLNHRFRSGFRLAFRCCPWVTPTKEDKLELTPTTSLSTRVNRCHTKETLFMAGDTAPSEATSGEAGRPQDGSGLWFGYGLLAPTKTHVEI
Experimental: The cells are put into suspension at a rate of 500,000 cells/ml in Hepes buffer and arranged in a spectrofluorimeter cuvette. The excitation wavelength is fixed at 355 nm and the emission is recorded at […].

receptor EGFP-NK2R [7] = target: T2, receptor EGFP-NK2R; assay: Dissociation of NKA4-10 TR7 from EGFP-NK2R by fluorescence energy transfer; format: binding; settings: 10° C.; without 805
Experimental: as §2, §3

[8] = in the presence of 50 μM compound, dissociation by non-fluorescent NKA
[9] = 20 nM NKA-Bo, 10 μM SR 48968, no effector

- fraction of the NKA-Bo bound to its site displaced by the compound (receptor EGFP-NK2R [1]): 29%
- rapid binding of NKA-Bo, % of the total binding signal (receptor EGFP-NK2R [3]; 20 nM NKA-Bo, in the presence of A11 (50 μM), 44% in its absence): 52%
- slow binding of NKA-Bo, amplitude (receptor EGFP-NK2R [3]; 20 nM NKA-Bo, in the presence of A11 (50 μM), 66% in its absence): 48%
- % al (max): maximum value observed for the increase in amplitude of the rapid dissociation rate (receptor EGFP-NK2R [4]; Table 1, ns = not significant): ≧90%
- fraction of receptors in the low-affinity state (receptor EGFP-NK2R [4]; at 100 μM of effector, approximately 25% in the absence of effector): ~100%
- effect on the dissociation kinetics of NKA-Bo (receptor EGFP-NK2R [4]; dissociation by non-fluorescent NKA in the presence of compound): accelerating the dissociation rate
- amplitude of the rapid dissociation of NKA-Bo (% of total signal) (receptor EGFP-NK2R [4]; [8]): 78%
- amplitude of the slow dissociation of NKA-Bo (% of total signal) (receptor EGFP-NK2R [4]; [8]): 22%
- EC50 (receptor EGFP-NK2R [4]; read-out: EC50 (μM): concentration of compound causing a 50% increase (relative to the maximum value) in the percentage of the amplitude of the rapid dissociation rate, Table 1, dissociation of NKA-Bo from EGFP-NK2R, ns = not significant): 38 to 44 µM
Compound: N#CCN(Cc1ccc(N)cc1)Cc1ccc2ccccc2c1 [A11, [(4-Amino-benzyl)-naphthalen-2-ylmethyl-amino]-acetonitrile]
- Ca Rep.: ability to evoke a calcium response on cells not expressing the EGFP-NK2R receptor [2]: ns

Compound: CSCC[C@H](NC(=O)[C@H](CC(C)C)NC(=O)CNC(=O)[C@@H](NC(=O)[C@H](Cc1ccccc1)NC(=O)[C@H](CO)NC(=O)[C@H](CC(=O)O)NC(=O)[C@@H](NC(=O)[C@H](CCCCN)NC(=O)[C@H](Cc1c[nH]cn1)NC(=O)CCc1ccc2n1[B-](F)(F)[N+]1=C(c3ccccc3)C=C(c3ccccc3)C1=C2)[C@@H](C)O)C(C)C)C(N)=O [NKA-Bo]
- k1app, apparent rate constant of rapid association (receptor EGFP-NK2R [3]; NKA-BO 100 nM final, 21° C.): 0.6 s⁻¹
- k2app, apparent rate constant of slow association (receptor EGFP-NK2R [3]; NKA-BO 100 nM final, 21° C.): 0.03 s⁻¹
- λ1, amplitude of the rapid association relaxation (receptor EGFP-NK2R [3]; NKA-BO 100 nM final, 21° C.): 67%
- λ2, amplitude of the slow association relaxation (receptor EGFP-NK2R [3]; NKA-BO 100 nM final, 21° C.): 32%
- kapp of the rapid binding of NKA-Bo (receptor EGFP-NK2R [3]; NKA-Bo 20 nM): 0.095 s⁻¹
- kapp of the slow binding of NKA-Bo (receptor EGFP-NK2R [3]; NKA-Bo 20 nM, with or without A11): 0.0095 s⁻¹
- λ1, amplitude of rapid dissociation of NKA-Bo (receptor EGFP-NK2R [4]; [9]): 40%
- λ2, amplitude of slow dissociation of NKA-Bo (receptor EGFP-NK2R [4]; [9]): 58%

Compound: NKA4-10 TR7: truncated neurokinin NKA4-10 marked in position 7 by Texas Red
- amplitude of the slow dissociation of NKA4-10 TR7 (receptor EGFP-NK2R [5]): 42%
- EC50 (receptor EGFP-NK2R [6]): ~0.02 µM
- amplitude of the rapid dissociation of NKA4-10 TR7 (receptor EGFP-NK2R [7]): 58%
